Test results reported in article PMC7156736, “Phase 1 study of the pan-HER inhibitor dacomitinib plus the MEK1/2 inhibitor PD-0325901 in patients with KRAS-mutation-positive colorectal, non-small-cell lung and pancreatic cancer” (British Journal of Cancer, 2020).
Where two headings read alike, the source gives them in different places.

Columns and labels:
[1] = plasma pharmacokinetics in patients (HPLC–MS/MS, non-compartmental analysis); assay type: in vivo, human; conditions: for AUC(0-t) / Cmax / Tmax: human, plasma, oral; for AUC(0-t): read-out: AUC0-24h dacomitinib, mean (CV%); for Cmax: read-out: Cmax dacomitinib, mean (CV%); for Tmax: read-out: tmax dacomitinib, mean
Description: For pharmacokinetic analyses, serial blood samples were obtained from all patients prior to treatment administration on day 1, and 1, 2, 3, 4, 6, 8, 12, 24, 72 and 144 h after the first dose. On day 1 of cycle 2, blood samples were drawn before and 1, 2, 3, 4, 6, 8, 12 and 24 h after administration. Plasma samples were assayed using a validated high-performance liquid chromatography– tandem mass spectrometry method (HPLC–MS/MS). Briefly, dacomitinib and PD-0325901 were extracted from plasma by protein precipitation with a mixture of acetonitrile/methanol (1:1 v/v). Compounds were chromatographically separated using a Waters Xbridge BEH Phenyl column (50 ×2.1-mm ID, 5-μm particle size), and detection was performed using an API4000 tandem mass spectrometer equipped with a turbo ion spray interface, operating in the positive ion mode. Transitions from m/z 480 to 329 and m/z 489 to 255 were monitored for the detection of dacomitinib and PD-0325901, respectively. Stable isotope-labelled internal standards were used for the quantification. The lower and upper limits of quantification were, respectively, 0.5 and 50 ng/ml for dacomitinib, and 5 and 500 ng/ml for PD-0325901. Pharmacokinetic parameters were calculated in R using an in-house-developed validated script for non-compartmental pharmacokinetic analyses (version 3.6.0).[9]

[2] = test system: patients with KRASm CRC, NSCLC or pancreatic cancer; assay type: in vivo; conditions: dacomitinib QD continuous, PD-0325901 BID 21 days on/7 days off
Source text: . The starting doses were based on previous data from single-agent Phase 1 studies with both compounds, taking into account the potential for synergistic toxicity. […]. Dose-escalation decisions were based on safety evaluation of all evaluable patients, performed after completion of the first treatment cycle. Patients were considered evaluable for the dose-determining part of this study if at least one cycle of study treatment was completed, with the minimum safety evaluation conducted, and at least one administration of both drugs received, or if dose-limiting toxicity (DLT) had occurred during the first cycle. If one out of three patients experienced a DLT, the number of patients treated at that dose level was expanded to a maximum of six. […] Patients were continuing study treatment until disease progression, unacceptable toxicity or investigator/patient decision to discontinue.
Safety was monitored throughout the treatment by physical examination, laboratory assessments, electrocardiography, ophthalmic evaluation and collection of adverse events. Adverse events were recorded according to the Common Terminology Criteria for Adverse Events version 4.0. All adverse events that were possible, probable or definite related to study drug were considered as study/treatment related. […]

HER1 = conditions: human catalytic domain of HER1; read-out: in vitro IC50; cited from earlier work
HER2 = conditions: human catalytic domain of HER2; read-out: in vitro IC50; cited from earlier work
HER4 = conditions: human catalytic domain of HER4; read-out: in vitro IC50; cited from earlier work
HER2/HER3 = test system: HER2/HER3; design: method as in unpublished data; conditions: ref unpublished data; cited from earlier work
[3] = 15 mg, All 15 mg doses, Cycle 1 Day 1, n = 23
[4] = 15 mg, All 15 mg doses, Cycle 2 Day 1, n = 18
[5] = 30 mg, All 30 mg doses, Cycle 1 Day 1, n = 17
[6] = 30 mg, All 30 mg doses, Cycle 2 Day 1 or last day of concomitant use, n =11
[7] = Dose-level 1: dacomitinib 30 mg QD + PD-0325901 2 mg BID, Cycle 1 Day 1, n = 6
[8] = Dose-level 1: dacomitinib 30 mg QD + PD-0325901 2 mg BID, Cycle 2 Day 1, n = 6
[9] = Dose-level 2: dacomitinib 15 mg QD + PD-0325901 3 mg BID, Cycle 1 Day 1, n = 6
[10] = Dose-level 2: dacomitinib 15 mg QD + PD-0325901 3 mg BID, Cycle 2 Day 1, n = 5
[11] = Dose-level 3: dacomitinib 15 mg QD + PD-0325901 4 mg BID, Cycle 1 Day 1, n = 2
[12] = Dose-level 3: dacomitinib 15 mg QD + PD-0325901 4 mg BID, Cycle 2 Day 1, n = 2
[13] = Dose-level 4: dacomitinib 15 mg QD + PD-0325901 5 mg BID, Cycle 1 Day 1, n = 3
[14] = Dose-level 4: dacomitinib 15 mg QD + PD-0325901 5 mg BID, Cycle 2 Day 1, n = 3
[15] = Dose-level 5: dacomitinib 15 mg QD + PD-0325901 6 mg BID, Cycle 1 Day 1, n = 8
[16] = Dose-level 5: dacomitinib 15 mg QD + PD-0325901 6 mg BID, Cycle 2 Day 1, n = 5
[17] = Dose-level 6: dacomitinib 30 mg (4/3) QD + PD-0325901 6 mg BID, Cycle 1 Day 1, n = 3
[18] = Dose-level 6: dacomitinib 30 mg (4/3) QD + PD-0325901 6 mg BID, last day of concomitant use of both drugs, n = 1
[19] = Dose-level 7: dacomitinib 30 mg (5/2) QD + PD-0325901 6 mg (5/2) BID, Cycle 1 Day 1, n = 3
[20] = Dose-level 7: dacomitinib 30 mg (5/2) QD + PD-0325901 6 mg (5/2) BID, last day of concomitant use of both drugs, n = 2
[21] = Dose-level 8: dacomitinib 30 mg (5/2) QD + PD-0325901 5 mg (5/2) BID, Cycle 1 Day 1, n = 5
[22] = Dose-level 8: dacomitinib 30 mg (5/2) QD + PD-0325901 5 mg (5/2) BID, last day of concomitant use of both drugs, n=2
[23] = Dose-level -1: dacomitinib 15 mg QD + PD-0325901 2 mg BID, Cycle 1 Day 1, n = 4
[24] = Dose-level -1: dacomitinib 15 mg QD + PD-0325901 2 mg BID, Cycle 2 Day 1, n = 3

COc1cc2ncnc(Nc3ccc(F)c(Cl)c3)c2cc1NC(=O)/C=C/CN1CCCCC1 [dacomitinib]
plasma concentration versus preclinical target of 22 ng/ml ([1]; 15 mg dacomitinib doses, for a substantial number of patients): did not exceed the preclinical target
increase of exposure with dose ([1]; across dose levels): approximately dose-proportionally
AUC(0-t) [1, 3]: 122 ng·h/mL
Cmax [1, 3]: 8.6 ng/mL
Tmax [1, 3]: 7.6 h
AUC(0-t) [1, 4]: 616 ng·h/mL
Cmax [1, 4]: 31.2 ng/mL
Tmax [1, 4]: 7.2 h
AUC(0-t) [1, 5]: 250 ng·h/mL
Cmax [1, 5]: 16 ng/mL
Tmax [1, 5]: 8.3 h
AUC(0-t) [1, 6]: 909 ng·h/mL
Cmax [1, 6]: 51.7 ng/mL
Tmax [1, 6]: 4.8 h
AUC(0-t) [1, 7]: 318 ng·h/mL
Cmax [1, 7]: 19.2 ng/mL
Tmax [1, 7]: 7.5 h
AUC(0-t) [1, 8]: 888 ng·h/mL
Cmax [1, 8]: 47.4 ng/mL
Tmax [1, 8]: 7.6 h
AUC(0-t) [1, 9]: 112 ng·h/mL
Cmax [1, 9]: 6.7 ng/mL
Tmax [1, 9]: 8.7 h
AUC(0-t) [1, 10]: 549 ng·h/mL
Cmax [1, 10]: 26 ng/mL
Tmax [1, 10]: 9.6 h
AUC(0-t) [1, 11]: 45 ng·h/mL
Cmax [1, 11]: 2.5 ng/mL
Tmax [1, 11]: 12 h
AUC(0-t) [1, 12]: 262 ng·h/mL
Cmax [1, 12]: 25.7 ng/mL
Tmax [1, 12]: 2 h
AUC(0-t) [1, 13]: 137 ng·h/mL
Cmax [1, 13]: 8.5 ng/mL
Tmax [1, 13]: 4.7 h
AUC(0-t) [1, 14]: 654 ng·h/mL
Cmax [1, 14]: 33.5 ng/mL
Tmax [1, 14]: 5 h
AUC(0-t) [1, 15]: 136 ng·h/mL
Cmax [1, 15]: 11.4 ng/mL
Tmax [1, 15]: 7.9 h
AUC(0-t) [1, 16]: 747 ng·h/mL
Cmax [1, 16]: 37.3 ng/mL
Tmax [1, 16]: 4.4 h
AUC(0-t) [1, 17]: 159 ng·h/mL
Cmax [1, 17]: 11.1 ng/mL
Tmax [1, 17]: 7.3 h
AUC(0-t) [1, 18]: 647 ng·h/mL
Cmax [1, 18]: 32 ng/mL
Tmax [1, 18]: 8 h
AUC(0-t) [1, 19]: 290 ng·h/mL
Cmax [1, 19]: 19.1 ng/mL
Tmax [1, 19]: 13.3 h
AUC(0-t) [1, 20]: 658 ng·h/mL
Cmax [1, 20]: 37.5 ng/mL
Tmax [1, 20]: 4.5 h
AUC(0-t) [1, 21]: 200 ng·h/mL
Cmax [1, 21]: 14.2 ng/mL
Tmax [1, 21]: 6.6 h
AUC(0-t) [1, 22]: 789 ng·h/mL
Cmax [1, 22]: 55.9 ng/mL
Tmax [1, 22]: 4.5 h
AUC(0-t) [1, 23]: 126 ng·h/mL
Cmax [1, 23]: 7.9 ng/mL
Tmax [1, 23]: 5.6 h
AUC(0-t) [1, 24]: 513 ng·h/mL
Cmax [1, 24]: 26.3 ng/mL
Tmax [1, 24]: 11 h
increase of mean Cmax and AUC0–24h after multiple dosing (accumulation) ([1]; patients, combination treatment): 3- to 5 fold
recommended Phase 2 dose (RP2D) / established maximum dose level in the combination with continuous dacomitinib dosing [2]: 15 mg
IC50 (HER1): 6 nM
IC50 (HER2): 45.7 nM
IC50 (HER4): 74 nM
IC50 for HER2/HER3 inhibition (preclinical target plasma concentration) (HER2/HER3): 0.022 µg/mL
